These results are taken from patent publication US7632972B2, “Compounds and methods for treatment of cancer and modulation of programmed cell death for melanoma and other cancer cells” (The Board of Trustees of the University of Illionis, priority 2003, dated 2009).

Molecules are shown by their SMILES. Read-outs that look alike come from different tables or passages of the source.

The test system of one test is B16-F10. Description: Death induction in melanoma cell line. It counts as cell-based, mouse. On the procedure: (§1) Given the interesting and somewhat unusual trait of G1 arrest, compounds x and y were tested for their ability to induce death in two melanoma cell lines: UACC-62 (human), and B16-F10 (mouse). […] Compounds x and y were also submitted for testing in the NCl 60-cell line assay. […] The triphenylamides (TPAs) induce apoptosis in these melanoma cell lines.

Another test deals with UACC-62. Nature of the test: Death induction in melanoma cell line. It counts as cell-based, human. The procedure:
as §1

Test [1] relates to U-937 cells. Description: cells. The test is classed as cell-based, human. The note with it: Homo sapiens; Table 13, U-937.
The next test relates to human bone marrow cells. Description: Toxicity to bone marrow cells of a healthy donor, MTS bioreduction after 72 hours. The note with it: Bone marrow cell, Table 13, bone marrow cells of healthy donor. It counts as cell-based. The source says: Specificity for cancer cells. The vast majority of anti-cancer drugs are toxic to all rapidly dividing cell types, often leading to deleterious side effects and a reduced therapeutic window. For instance, hematopoietic bone marrow is responsible for the production of red and white blood cells, and the anemia observed upon treatment with certain chemotherapy agents is in a large part due to the toxicity of the anti-cancer drugs on cells in the human bone marrow. Thus, to determine the relative effect of the triphenylamides on melanoma versus normal cells, cells derived from the human bone marrow of a healthy donor were used; measurement of the effect on healthy bone marrow cells can assist in assessing the toxicity of putative anti-cancer agents. (17-20) These cells were treated with increasing concentrations of the compounds shown in Table 13, and cell viability was evaluated after 72 hours using the MTS bioreduction assay. The data in Table 13 indicate that several of the triphenyl amides have selective toxicity to melanoma cells versus the human bone marrow cells.

The next test concerns HL-60 cells. Nature of the test: Determination of IC50 values, cell death by MTS/PMS after 72 h. The note with it: Homo sapiens, HL-60, read-out: HL-60.
A further test has as its system U-937 cell line. Description: Death induction by amide library, MTS dye reduction. It counts as cell-based, human. The procedure: Compounds were tested in a U937 cell assay as previously described by Hergenrother et al. (see Hergenrother 2003 and U.S. 60/516,566).
The ability of the 100 amides thus produced to induce death in cancer cells was assessed by an assay based on the reduction of the MTS (3-(4,5-dimethylthiazol-2-yl)-5-(3-carboxymethoxyphenyl)-2-(4-sulfophenyl)-2H-tetrazolium, inner salt) dye. This tetrazolium dye is rapidly converted to the formazan product by living cells, and therefore provides a sensitive readout of cell life or death that can be monitored at 490 nm.
(In general: Tetrazolium assays rely on reduction of a dye to a coloured formazan, in cell work by metabolically active cells.)

For test [2], the system named is U-937 cells. Description: High-throughput cell death assay on library members (MTS/PMS). Conditions: library members at 100 μM, 24 hours. The test is classed as cell-based, human. On the procedure: A three-tiered system was devised to identify compounds that selectively induce apoptosis in cancer cells. First, all compounds were screened at 100 μM in a high-throughput manner for their ability to induce death in two cancer cell lines, HL-60 (leukemia) and U-937 (lymphoma).
Test compounds were transferred into the wells using a 96-pin transfer apparatus (V & P Scientific, San Diego Calif.) that transfers 0.2 μL of compound. The compounds were made up as 50 mM stock solutions in 100% EtOH, so one transfer gave a final concentration of 100 μM. Controls were performed in which only EtOH (containing no compound) was pin-transferred into wells containing cells. The cells were incubated with the compounds for 24 hours, and then cell death was quantitated.

Setting [3] is: B16-F10, mouse melanoma cell line, read-out: IC50, BF16-F10.
The mark [4] stands for this setting: UACC-62, human melanoma cell line, read-out: IC50, UACC-62.
Where [5] appears, read: Mus musculus, B16-F10, Table 13, B16F10 melanoma, read-out: B16F10.
The mark [6] stands for this setting: Homo sapiens, Table 13, UACC-62 melanoma, read-out: UACC-62.
The mark [7] stands for this setting: Homo sapiens, U-937, hit compounds of first generation library, read-out: IC50 Value-U-937 cells.
The mark [8] stands for this setting: hit compounds of first generation library, read-out: IC50 Value-U-937 cells.

Description for HL-60 cells: General Cell Culture Conditions: U-937 and HL-60 cell lines were grown in RPMI 1640 supplemented with 10% FBS and incubated at 37° C. in a 5% CO2, 95% air atmosphere and were split every two to three days as necessary.
Cells were then resuspended in RPMI 1640+10% FBS, counted using a hemocytometer and diluted so that 10,000 cells were seeded in to each well of a Corning 96-well flat bottom microtiter plate (Fisher, Chicago Ill.). Media was then added to bring the total volume of each well to 100 μL. Each compound was weighed and then diluted with EtOH to make a 100 mM stock solution. The compounds were added at 9 or more different concentration in 1 μL of EtOH. After a 72 h incubation (37° C. in a 5% CO2, 95% air atmosphere) cell death was quantitated by addition of 20 μL of the MTS/PMS CellTiter 96 Cell Proliferation Assay reagent (Promega, Madison Wis.) to each well. The plates were incubated at 37° C. for approximately 1 hour until the colored product formed and the absorbance was then measured at 490 nm in a Spectra Max Plus 384 plate reader (Molecular Devices, Sunnyvale Calif.). The IC50 was taken as the concentration that caused 50% cell death.

Regarding `O=C(NCCc1ccccc1)C(c1ccccc1)(c1ccccc1)c1ccccc1` [drawing 73], the results for the IC50 with B16-F10 (setting [3]) and with UACC-62 (setting [4]) were 420 nM and 490 nM, respectively.
As to `COc1ccc(CNC(=O)CC(c2ccccc2)(c2ccccc2)c2ccccc2)c(OC)c1`, the IC50 with U-937 cells [1] was 7170 nM; in the test on B16-F10 (setting [5]), 550 nM; with human bone marrow cells, 1870 nM; in the test with UACC-62 (setting [6]), 520 nM; in the test with HL-60 cells, 2260 nM.
`COc1cc([C@@H]2c3cc4c(cc3[C@@H](O[C@@H]3O[C@@H]5CO[C@@H](C)O[C@H]5[C@H](O)[C@H]3O)[C@H]3COC(=O)[C@H]23)OCO4)cc(OC)c1O` [Etoposide]: the IC50 in the test with B16-F10 (setting [5]) and with UACC-62 (setting [6]) was above 100000 nM each time.
In the case of `COc1cccc(CCNC(=O)CC(c2ccccc2)(c2ccccc2)c2ccccc2)c1` [drawing 74], the figures for the IC50 in the test on B16-F10 (setting [3]) and in the test with UACC-62 (setting [4]) were 850 nM and 1340 nM, respectively.
Turning to `O=P1(N(CCCl)CCCl)NCCCO1` (stereo not drawn) [Cyclophosphamide], the IC50 in the test with B16-F10 (Mus musculus, B16-F10, read-out: B16F10) is above 100000 nM; with UACC-62 (Homo sapiens, UACC-62, read-out: UACC-62), above 100000 nM.
As for `COc1cccc(/C=C/C(=O)Nc2cc(OC)c(OC)c(OC)c2)c1`, the IC50 with U-937 cell line (setting [7]) was 8000 nM.
Take `O=C(CC(c1ccccc1)(c1ccccc1)c1ccccc1)NCCc1cccnc1`: the IC50 was 930 nM with U-937 cells [1]; 1610 nM in the test on B16-F10 (setting [5]); 680 nM with human bone marrow cells; 700 nM in the test on UACC-62 (setting [6]); 1390 nM with HL-60 cells.
As for `COc1ccc(CCNC(=O)CC(c2ccccc2)(c2ccccc2)c2ccccc2)cc1OC` [drawing 69, R1 = H, R2 = OCH3, R3 = OCH3], the IC50 in the test with U-937 cell line (setting [8]) turned out to be 18300 nM.
Turning to `O=C(NC12CC3CC(CC(C3)C1)C2)C(c1ccccc1)(c1ccccc1)c1ccccc1` [drawing 75], the IC50 with B16-F10 (setting [3]) turned out to be 15600 nM; in the test with UACC-62 (setting [4]), 2400 nM.
In the case of `O=C(NCCc1ccccc1)C(c1ccccc1)(c1ccccc1)c1ccccc1` [drawing 68, R = H], the IC50 with U-937 cell line (setting [8]) was 8000 nM.
As for `C[C@]12C=CC(=O)C=C1CC[C@@H]1[C@@H]2C(=O)C[C@@]2(C)[C@H]1CC[C@]2(O)C(=O)CO` [Prednisone], the IC50 in the test on B16-F10 (setting [5]) and in the test with UACC-62 (setting [6]) was above 100000 nM throughout.
For `O=C(NC1CCCc2ccccc21)C(c1ccccc1)(c1ccccc1)c1ccccc1` (stereo not drawn), the IC50 in the test on U-937 cells [1] turned out to be 1250 nM; with B16-F10 (setting [5]), 980 nM; with human bone marrow cells, 500 nM; in the test with UACC-62 (setting [6]), 1770 nM; in the test on HL-60 cells, 2210 nM.
On to `COc1ccc(CNC(=O)C(c2ccccc2)(c2ccccc2)c2ccccc2)cc1`, for which the IC50 amounted to 8160 nM in the test on U-937 cells [1]; 600 nM in the test with B16-F10 (setting [5]); 4770 nM in the test with human bone marrow cells; 690 nM with UACC-62 (setting [6]); 10500 nM in the test with HL-60 cells.
Turning to `CCCCCCCCCCCCCCCC(=O)N(C)C(C)C(O)c1ccccc1` (stereo not drawn), the IC50 with U-937 cell line (Homo sapiens, U-937, read-out: IC50 Value-U-937 cells) is 3100 nM.
For the compound `O=C(NC1C2CC3CC(C2)CC1C3)C(c1ccccc1)(c1ccccc1)c1ccccc1` (stereo not drawn), the IC50 turned out to be 490 nM in the test with U-937 cells [1]; 7410 nM with B16-F10 (setting [5]); 320 nM in the test with human bone marrow cells; 15300 nM in the test with UACC-62 (setting [6]); 920 nM in the test with HL-60 cells.
Take `COc1cc(/C=C/C(=O)NC[C@H](OC)c2ccc(O)cc2)cc(OC)c1OC` [Compound 11-F]: the “Induction of death in U-937 cells (percentages of cell death)” value (“Induction … (percentages of cell death)” for short) in the test on U-937 cells [2] stood at 27%.
Same read-out and setting: to `CO[C@H](CNC(=O)/C=C/c1ccc(O)cc1)c1ccccc1` [Compound 8-B] belongs 34%; to `O=C(/C=C/c1ccccc1)NC[C@@H](O)c1ccc(O)cc1` [Compound 13-A], 43%; to `COc1cccc(/C=C/C(=O)NCCc2ccccc2)c1` [Compound 16-H], 57%.
`O=C(NC12CC3CC(CC(C3)C1)C2)C(c1ccccc1)(c1ccccc1)c1ccccc1` [drawing 78]: the IC50 with U-937 cells [1] is 480 nM; in the test with B16-F10 (setting [5]) it was 15700 nM; in the test with human bone marrow cells, 590 nM; with UACC-62 (setting [6]) it was 2410 nM; with HL-60 cells, 850 nM.
`COc1ccc([C@H](O)CNC(=O)/C=C/c2ccc(O)c(OC)c2)cc1` [Compound 14-D]: the “Induction … (percentages of cell death)” value with U-937 cells [2] is recorded as 59%.
The same measure, in the same setting: the result for `COc1cc(/C=C/C(=O)NC[C@H](OC)c2ccc(O)cc2)cc(OC)c1O` [Compound 11-G] reads −11%; that for `COc1cc(/C=C/C(=O)NCCc2ccc(O)cc2)ccc1O` [Compound 17-D], 58%.
Take `COc1ccccc1CCNC(=O)CC(c1ccccc1)(c1ccccc1)c1ccccc1` [drawing 69, R1 = OCH3, R2 = H, R3 = H]: the IC50 with U-937 cell line (setting [8]) came out at 15700 nM.
In the case of `CC(=O)OC(CNC(=O)C(c1ccccc1)(c1ccccc1)c1ccccc1)c1ccccc1` (stereo not drawn), the IC50 worked out at 10800 nM in the test with U-937 cells [1]; 800 nM in the test on B16-F10 (setting [5]); 4000 nM with human bone marrow cells; 620 nM in the test with UACC-62 (setting [6]); 16200 nM in the test on HL-60 cells.
Turning to `O=C(/C=C/c1ccc(O)cc1)NCCc1ccccc1` [Compound 16-B], in the test on U-937 cells [2], the “Induction … (percentages of cell death)” value is listed as 66%.
On the same count and under the same terms, to `COc1cccc(/C=C/C(=O)NC[C@@H](OC)c2ccc(O)cc2)c1` [Compound 9-H] belongs 38%.
Same read-out and setting: the result for `CO[C@@H](CNC(=O)/C=C/c1ccc(O)cc1)c1ccc(O)cc1` [Compound 11-B] reads 60%.
For the compound `COc1ccc(/C=C/C(=O)NC23CC4CC(CC(C4)C2)C3)c2ccccc12`, in the test with U-937 cell line (setting [7]), the IC50 turned out to be 7100 nM.
For the compound `COc1cccc(/C=C/C(=O)NC[C@H](O)c2ccc(O)cc2)c1` [Compound 15-H], in the test with U-937 cells [2], the “Induction … (percentages of cell death)” value was 24%.
Same read-out and setting: the result for `COc1cc(/C=C/C(=O)NC[C@@H](OC)c2ccc(O)cc2)cc(OC)c1OC` [Compound 9-F] reads 13%; that for `CO[C@H](CNC(=O)/C=C/c1ccccc1)c1ccc(O)cc1` [Compound 9-A], 24%.
Same read-out and setting: to `O=C(/C=C/c1ccc(O)cc1)NC[C@H](O)c1ccc(O)cc1` [Compound 15-B] belongs 39%; to `COc1ccc([C@H](O)CNC(=O)/C=C/c2ccc(O)cc2)cc1` [Compound 14-B], 27%; to `COc1ccc(/C=C/C(=O)NC[C@H](OC)c2ccc(O)cc2)cc1O` [Compound 11-E], 41%.
As for `O=C(/C=C/c1ccc(O)cc1)NC[C@@H](O)c1ccc(O)cc1` [Compound 13-B], the “Induction … (percentages of cell death)” value with U-937 cells [2] amounted to 49%.
On the same count and under the same terms, to `COc1ccc(CCNC(=O)/C=C/c2ccc(O)c(OC)c2)cc1` [Compound 18-D] belongs 66%; to `COc1cc(/C=C/C(=O)NC[C@@H](OC)c2ccccc2)cc(OC)c1OC` [Compound 8-F], 31%.
